# Experimental data reported in PubChem BioAssay AID2060888 (Molecular Pharmacology Branch, DTP, NCI, 2025).
# pIC50: −log10 of the molar value.
# Tested on: 695427-040-R-J1-PDC complex spheroid viability
# Test: Anticancer human tumor 695427-040-R-J1-PDC patient-derived colon adenocarcinoma cell line growth inhibition [RAS]
# Conditions: for pIC50: curve of first compound; for viability, T/C: stronger effect = lower value
# Method in brief: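 Agents were tested in combination matrices in half-log decrements from a top concentration at or near clinical Cmax (10 microM if undetermined). Targets were multi-cell spheroids of tumour lines plus HUVEC and MSC stromal cells.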
# 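Note: viability read after seven days of drug exposure.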
# 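Throughout, for viability, T/C: 100% = DMSO vehicle control viability.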
compound,measurement,setting,value
O=C(c1ccc(F)c(F)c1Nc1ccc(I)cc1F)N1CC(O)([C@@H]2CCCCN2)C1 + C=CC(=O)N1CCN(c2nc(OCC3CCCN3C)nc3c(F)c(-c4nc(N)cc(C)c4C(F)(F)F)c(Cl)cc23)C(C)C1,pIC50,second compound 0.00316 µM,7.43
same,pIC50,second compound 0.01 µM,7.40
same,pIC50,second compound 0.0316 µM,7.40
same,pIC50,second compound 0.1 µM,7.33
same,pIC50,second compound 0.316 µM,7.33
same,pIC50,second compound 1 µM,7.25
same,"viability, T/C","second compound 0.00316 µM, first compound 0.00316 µM",81.5%
same,"viability, T/C","second compound 0.00316 µM, first compound 0.01 µM",75.2%
same,"viability, T/C","second compound 0.00316 µM, first compound 0.0316 µM",50.1%
same,"viability, T/C","second compound 0.00316 µM, first compound 0.1 µM",32.4%
same,"viability, T/C","second compound 0.00316 µM, first compound 0.316 µM",13.7%
same,"viability, T/C","second compound 0.00316 µM, first compound 1 µM",6.97%
same,"viability, T/C","second compound 0.01 µM, first compound 0.00316 µM",85.8%
same,"viability, T/C","second compound 0.01 µM, first compound 0.01 µM",74.7%
same,"viability, T/C","second compound 0.01 µM, first compound 0.0316 µM",54.9%
same,"viability, T/C","second compound 0.01 µM, first compound 0.1 µM",30.2%
same,"viability, T/C","second compound 0.01 µM, first compound 0.316 µM",15.9%
same,"viability, T/C","second compound 0.01 µM, first compound 1 µM",2.53%
same,"viability, T/C","second compound 0.0316 µM, first compound 0.00316 µM",86.5%
same,"viability, T/C","second compound 0.0316 µM, first compound 0.01 µM",72%
same,"viability, T/C","second compound 0.0316 µM, first compound 0.0316 µM",58%
same,"viability, T/C","second compound 0.0316 µM, first compound 0.1 µM",27.8%
same,"viability, T/C","second compound 0.0316 µM, first compound 0.316 µM",15.4%
same,"viability, T/C","second compound 0.0316 µM, first compound 1 µM",4.49%
same,"viability, T/C","second compound 0.1 µM, first compound 0.00316 µM",87.7%
same,"viability, T/C","second compound 0.1 µM, first compound 0.01 µM",73.1%
same,"viability, T/C","second compound 0.1 µM, first compound 0.0316 µM",60.8%
same,"viability, T/C","second compound 0.1 µM, first compound 0.1 µM",32.6%
same,"viability, T/C","second compound 0.1 µM, first compound 0.316 µM",16.4%
same,"viability, T/C","second compound 0.1 µM, first compound 1 µM",5.49%
same,"viability, T/C","second compound 0.316 µM, first compound 0.00316 µM",82.8%
same,"viability, T/C","second compound 0.316 µM, first compound 0.01 µM",86.4%
same,"viability, T/C","second compound 0.316 µM, first compound 0.0316 µM",55.4%
same,"viability, T/C","second compound 0.316 µM, first compound 0.1 µM",31.6%
same,"viability, T/C","second compound 0.316 µM, first compound 0.316 µM",15.2%
same,"viability, T/C","second compound 0.316 µM, first compound 1 µM",2.92%
same,"viability, T/C","second compound 1 µM, first compound 0.00316 µM",78.8%
same,"viability, T/C","second compound 1 µM, first compound 0.01 µM",81.7%
same,"viability, T/C","second compound 1 µM, first compound 0.0316 µM",60.2%
same,"viability, T/C","second compound 1 µM, first compound 0.1 µM",37.8%
same,"viability, T/C","second compound 1 µM, first compound 0.316 µM",15.1%
same,"viability, T/C","second compound 1 µM, first compound 1 µM",3.14%
